These results are taken from patent US20230140290A1, “SALICYLAMIDE DERIVATIVES AND RELATED METHODS OF MAKING” (THE BOARD OF REGENTS OF THE UNIVERSITY OF TEXAS SY, priority 2020, published 2023).

One series relates to A549 cells. As to the kind of experiment: Cytotoxicity assay (AlamarBlue). Particulars: read-out: CC50 (μM), cytotoxic concentration 50%; A549 cell line, 48 h. As for the experimental part:
Cytotoxicity Assay. The cytotoxicity of the compounds was analyzed by commercial kit AlamarBlue® (Invitrogen, Ref. DAL1025). A549 cells at a density of 5×10^3 cells per well in 96-well plates were seeded. […] Cells were then incubated at 37° C. for 48 h following the kit protocol. The cytotoxic concentration 50 (CC50) value was obtained using the statistical package GraphPad Prism. This assay was performed in duplicate.
On the technique in general: The colour change of resazurin is a common sign of viable cells or microbes.

Another series has as its system HAdV5-GFP. As to the kind of experiment: Plaque assay (inhibition of HAdV plaque formation). The series is classed as cell-based, HAdV-5. The following applies: for Selectivity index (SI): ratio of CC50 to IC50 in plaque assay; for inhibition at 10 µM: read-out: Plaque Assay (%) Inhibition (10 μM); for IC50: read-out: Plaque Assay IC50 (μM), HAdV5-GFP, low MOI, 293β5 cell line. An outline of the steps:
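Compounds were present in the post-infection mixture at 10 μM, or at 10 to 0.3 μM for dose-response. Infection used low MOI HAdV5-GFP (0.06 vp/cell) on 80-90% confluent cells, 2 h rocking at 37° C, then a PBS wash.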

`O=C(NCc1cc(F)cc(C(F)(F)F)c1)c1cc(Cl)ccc1O` [Compound 35, 5-Chloro-N-(3-fluoro-5-(trifluoromethyl)benzyl)-2-hydroxybenzamide]: in the series with A549 cells, the CC50 was determined as 36.3 ± 7.9 µM. Further, in the series with HAdV5-GFP, the “Selectivity index (SI)” value stood at 15.1; the inhibition – broadly, how much of the control response was suppressed – at 10 µM is 98.1 ± 1.4%; the IC50 (as a rule, the concentration needed to halve the response being measured) was determined as 2.4 ± 0.05 µM.

Consider `O=C(Nc1ccc(NCc2ccc(Br)cc2)cc1Cl)c1cc(Cl)ccc1O` [Compound 97, N-(4-((4-Bromobenzyl)amino)-2-chlorophenyl)-5-chloro-2-hydroxybenzamide], for which the CC50 in the series with A549 cells turned out to be 40.9 ± 2.2 µM. In the series with HAdV5-GFP, the “Selectivity index (SI)” value is 22.2, the inhibition at 10 µM was found to be 100% and the IC50 is 1.84 ± 0.1 µM.

`O=C(N[C@@H](Cc1ccccc1)C(=O)Nc1cc(C(F)(F)F)cc(C(F)(F)F)c1)c1cc(Cl)ccc1O` [Compound 69, (S)—N-(1-((3,5-Bis(trifluoromethyl)phenyl)amino)-1-oxo-3-phenylpropan-2-yl)-5-chloro-2-hydroxybenzamide]: the CC50 in the series on A549 cells is 17.9 µM. Further, in the series on HAdV5-GFP, the “Selectivity index (SI)” value was 44.9, the inhibition at 10 µM worked out at 99 ± 1.4% and the IC50 stood at 0.4 µM.

Take `CCCN(CCC)c1ccc(NC(=O)c2cc(Cl)ccc2O)c(Cl)c1` [Compound 91, 5-Chloro-N-(2-chloro-4-(dipropylamino)phenyl)-2-hydroxybenzamide]: the CC50 in the series with A549 cells was determined as 10.7 ± 2.1 µM. In the series with HAdV5-GFP, the “Selectivity index (SI)” value stood at 16.0, the inhibition at 10 µM was found to be 100% and the IC50 amounted to 0.67 ± 0.03 µM.

`O=C(NCc1ccc([N+](=O)[O-])cc1)c1cc(Cl)ccc1O` [Compound 43, 5-Chloro-2-hydroxy-N-(4-nitrobenzyl)benzamide]: the CC50 in the series on A549 cells was 175 ± 43.9 µM. Besides, in the series with HAdV5-GFP, the “Selectivity index (SI)” value was 26.7, the inhibition at 10 µM was 99.5 ± 0.7% and the half-inhibitory concentration (IC50) was 6.56 ± 0.47 µM.

For the compound `O=C(Nc1ccc(NCc2ccc(Br)s2)cc1Cl)c1cc(Cl)ccc1O` [Compound 113, N-(4-(((5-Bromothiophen-2-yl)methyl)amino)-2-chlorophenyl)-5-chloro-2-hydroxybenzamide], the CC50 in the series on A549 cells amounted to 20.7 ± 4.6 µM. For the same compound, in the series with HAdV5-GFP, the “Selectivity index (SI)” value is on record as 8.0, the inhibition at 10 µM was determined as 100% and the half-maximal inhibitory concentration (IC50) turned out to be 2.58 µM.

Consider `O=C(Nc1ccc(NCc2ccc(F)cc2)cc1Cl)c1cc(Cl)ccc1O` [Compound 95, 5-Chloro-N-(2-chloro-4-((4-fluorobenzyl)amino)phenyl)-2-hydroxybenzamide], for which, in the series with A549 cells, the CC50 came to 54.4 ± 12.3 µM. Further, in the series on HAdV5-GFP, the “Selectivity index (SI)” value is on record as 16.0, the inhibition at 10 µM was found to be 100% and the IC50 is 3.4 ± 0.54 µM.

Regarding `O=C(Nc1ccc(NCc2ccc(C(F)(F)F)cc2)cc1Cl)c1cc(Cl)ccc1O` [Compound 98, 5-Chloro-N-(2-chloro-4-((4-(trifluoromethyl)benzyl)amino)phenyl)-2-hydroxybenzamide], the CC50 in the series on A549 cells turned out to be 62.7 ± 6.1 µM. In addition, in the series with HAdV5-GFP, the “Selectivity index (SI)” value was found to be 43.8, the inhibition at 10 µM came out at 99.6 ± 0.6% and the IC50 turned out to be 1.43 ± 0.29 µM.

For `O=C(Nc1cc([N+](=O)[O-])ccc1F)c1cc(Cl)ccc1O` [Compound 12, 5-Chloro-N-(2-fluoro-5-nitrophenyl)-2-hydroxybenzamide], the CC50 in the series on A549 cells was determined as 8.1 ± 3.2 µM. Moreover, in the series on HAdV5-GFP, the “Selectivity index (SI)” value stood at 26.2, the inhibition at 10 µM is 100% and the 50% inhibitory concentration (IC50) turned out to be 0.31 µM.

Regarding `O=C(Nc1ccc(NCc2cc(F)cc(Cl)c2)cc1Cl)c1cc(Cl)ccc1O` [Compound 103, 5-Chloro-N-(2-chloro-4-((3-chloro-5-fluorobenzyl)amino)phenyl)-2-hydroxybenzamide], the CC50 in the series with A549 cells came to 11.1 ± 0.7 µM. In addition, in the series with HAdV5-GFP, the “Selectivity index (SI)” value amounted to 8.7, the inhibition at 10 µM amounted to 98.8 ± 0.6% and the IC50 turned out to be 1.28 ± 0.02 µM.

As to `O=C(NCc1ccc(C(F)(F)F)cc1)c1cc(Cl)ccc1O` [Compound 42, 5-Chloro-2-hydroxy-N-(4-(trifluoromethyl)benzyl)benzamide], the CC50 in the series with A549 cells turned out to be 23.9 ± 9.2 µM. Moreover, in the series on HAdV5-GFP, the “Selectivity index (SI)” value stood at 9.2, the inhibition at 10 µM was 99.6 ± 0.2% and the IC50 is 2.59 ± 0.42 µM.

Regarding `O=C(Nc1cc(F)cc(C(F)(F)F)c1)c1cccc(Cl)c1` [Compound 21, 3-Chloro-N-(3-fluoro-5-(trifluoromethyl)phenyl)benzamide], the CC50 in the series with A549 cells came to 38.6 ± 1.7 µM. In the series with HAdV5-GFP, the “Selectivity index (SI)” value is on record as 6.9, the inhibition at 10 µM was found to be 99.3 ± 0.9% and the IC50 came to 5.61 ± 0.37 µM.

`CC(C)(C)OC(=O)N1CCC(Nc2ccc(NC(=O)c3cc(Cl)ccc3O)c(Cl)c2)CC1` [Compound 124, tert-Butyl 4-((3-chloro-4-(5-chloro-2-hydroxybenzamido)phenyl)amino)piperidine-1-carboxylate]: the CC50 in the series with A549 cells was found to be 100 µM. In addition, in the series with HAdV5-GFP, the “Selectivity index (SI)” value was 82.6, the inhibition at 10 µM came out at 88.9 ± 9% and the IC50 stood at 1.21 µM.

With `Cc1ccc(O)c(C(=O)Nc2ccc(NC3CCCC3)cc2Cl)c1` [Compound 136, N-(2-Chloro-4-(cyclopentylamino)phenyl)-2-hydroxy-5-methylbenzamide], the CC50 in the series on A549 cells was found to be 30.9 ± 1.6 µM. In the series with HAdV5-GFP, the “Selectivity index (SI)” value is 11.4, the inhibition at 10 µM is 99.6 ± 0.5% and the IC50 is 2.72 µM.

For `O=C(NCc1ccc(Cl)cc1)c1cc(Cl)ccc1O` [Compound 38, 5-Chloro-N-(4-chlorobenzyl)-2-hydroxybenzamide], the CC50 in the series with A549 cells is 27.1 ± 1.1 µM. Also, in the series with HAdV5-GFP, the “Selectivity index (SI)” value is 7.6, the inhibition at 10 µM was determined as 97.4 ± 3.7% and the IC50 stood at 3.57 ± 1.43 µM.

On to `Cc1ccc(O)c(C(=O)Nc2cc(F)cc(C(F)(F)F)c2)c1` [Compound 19, N-(3-Fluoro-5-(trifluoromethyl)phenyl)-2-hydroxy-5-methylbenzamide], for which the CC50 in the series on A549 cells was 15.2 µM. For the same compound, in the series with HAdV5-GFP, the inhibition at 10 µM is 98 ± 2.8% and the IC50 stood at 0.65 µM.

Regarding `O=C(NCc1ccc(C(F)(F)F)c(F)c1)c1cc(Cl)ccc1O` [Compound 36, 5-Chloro-N-(3-fluoro-4-(trifluoromethyl)benzyl)-2-hydroxybenzamide], in the series with A549 cells, the CC50 is 22.3 ± 7.2 µM. In addition, in the series with HAdV5-GFP, the inhibition at 10 µM was determined as 99 ± 1.5% and the half-maximal inhibitory concentration (IC50) was found to be 1.4 ± 0.02 µM.

Turning to `CC(C)[C@H](NC(=O)c1cc(Cl)ccc1O)C(=O)Nc1cc(C(F)(F)F)cc(C(F)(F)F)c1` [Compound 65, (S)—N-(1-((3,5-Bis(trifluoromethyl)phenyl)amino)-3-methyl-1-oxobutan-2-yl)-5-chloro-2-hydroxybenzamide], in the series on A549 cells, the CC50 was 30.9 µM. In the series with HAdV5-GFP, the “Selectivity index (SI)” value turned out to be 77.4, the inhibition at 10 µM was 99.5 ± 0.7% and the IC50 worked out at 0.4 µM.

As to `CC(C)[C@H](NC(=O)c1cc(Cl)ccc1O)C(=O)Nc1ccc(F)c(F)c1` [Compound 68, (S)-5-Chloro-N-(1-((3,4-difluorophenyl)amino)-3-methyl-1-oxobutan-2-yl)-2-hydroxybenzamide], the CC50 in the series with A549 cells is 95 ± 18.7 µM. In the series on HAdV5-GFP, the “Selectivity index (SI)” value was 32.1, the inhibition at 10 µM stood at 98.3 ± 2.4% and the IC50 was 2.96 µM.

`CC(C)(C)OC(=O)NCCNc1ccc(NC(=O)c2cc(Cl)ccc2O)c(Cl)c1` [Compound 122, tert-Butyl (2-((3-chloro-4-(5-chloro-2-hydroxybenzamido)phenyl)amino)ethyl)carbamate]: the CC50 with A549 cells is 25 ± 5.7 µM. Besides, in the series on HAdV5-GFP, the “Selectivity index (SI)” value is given as 9.0, the inhibition at 10 µM worked out at 100% and the IC50 is 2.78 µM.

For `CN(C)c1ccc(CNc2ccc(NC(=O)c3cc(Cl)ccc3O)c(Cl)c2)cc1` [Compound 102, 5-Chloro-N-(2-chloro-4-((4-(dimethylamino)benzyl)amino)phenyl)-2-hydroxybenzamide], in the series with A549 cells, the CC50 was found to be 24.5 ± 3.5 µM. Also, in the series on HAdV5-GFP, the “Selectivity index (SI)” value was 9.0, the inhibition at 10 µM amounted to 100% and the IC50 amounted to 2.73 ± 0.26 µM.

For the compound `CCCCCCCCC(C)Nc1ccc(NC(=O)c2cc(Cl)ccc2O)c(Cl)c1` (centres unmarked) [Compound 84, 5-Chloro-N-(2-chloro-4-(decan-2-ylamino)phenyl)-2-hydroxybenzamide], the CC50 in the series on A549 cells turned out to be 21.9 ± 8.9 µM. Besides, in the series with HAdV5-GFP, the “Selectivity index (SI)” value is on record as 18.1, the inhibition at 10 µM came out at 100% and the IC50 was determined as 1.21 ± 0.02 µM.
